Reference: US20020193379A1, “Compositions and methods for decreasing the risk of or preventing neural tube disorders in mammals” (Insmed Incorporated, priority 2001, published 2002)
Read-outs that look alike come from different tables or passages of the source.

Key:
curly-tail mouse embryos = test: In vitro culture of curly-tail mouse embryos with inositols at 20 μg/ml for 24 hours; assay type: cell-based; conditions: for Mean posterior neuropore length / Mean posterior neuropore to crown-rump length ratio: in vitro; for Fold decrease in mean posterior neuropore length: 24 hours of treatment in vitro
Procedure: In in vitro studies, curly-tail mouse embryos were explanted into culture at 9.5 days after conception, corresponding to the onset of low spinal cord neural tube closure. Inositol additions were made at the start of culture and were maintained throughout the 24 hour culture period. Inositols were maintained at 20 μg/ml. At the end of culture, the embryos were dissected from their extraembryonic membranes, and crown-rump and posterior neuropore lengths were measured as indices of developmental growth, progression and low spinal neural tube closure.

[1] = tested on: curly tail mouse fetuses (NTDs characterized by spina bifida); test: In vivo treatment of pregnant curly-tail mice by subcutaneous minipump, fetuses scored for NTDs; conditions: subcutaneous 90 mg/kg/day, four to ten days
Procedure: (§1) In in vivo studies, pregnant curly-tail female mice were treated with inositols or PBS (control) by either subcutaneous injection or oral gavage. Using inositols at 75 mg/ml injected by subcutaneous minipump at […], a total daily dosage of 90 mg/kg/day was administered. Inositols were administered from gestational day 8.5 through day 18.5, and fetuses were scored for NTDs on days 12.5 and 18.5. For oral dosing, mice were administered via gavage with 400 mg/kg of inositol twice daily on gestational days 8.5 through 10.5, with fetuses scored for NTDs on day 12.5.

[2] = tested on: curly tail mouse fetuses (NTDs characterized by spina bifida); test: In vivo treatment of pregnant curly-tail mice by oral gavage, fetuses scored for NTDs; conditions: three days; for Number of fetuses showing NTDs characterized by spina bifida / Percent of treated fetuses showing spina bifida: oral gavage 400 mg/kg twice daily
Procedure: as §1

[3] = tested on: curly tail embryos (posterior neuropore closure); assay type: cell-based, mouse; conditions: for Effect on posterior neuropore length: vs PBS-treated controls
Procedure: (§2) Mice—Curly tail mice are maintained as a homozygous, random-bred stock (Van Straaten, H. W. M. & Copp, A. J., Anat. Embryol. 203, 225-237 (2001)) Experimental litters were generated by timed matings, and the day of finding a copulation plug was designated embryonic day (E) 0.5.
In vitro inositol treatment—E9.5 embryos (17-19 somite stage) were cultured for 24 hours at 38° C. in whole rat serum. Thirty minutes after the start of culture, myo-inositol (Sigma, UK) or D-chiro-inositol (Insmed, Va., USA) was added to the medium (62.5 μl of inositol stock per ml rat serum) to a final concentration of 5, 10, 20 or 50 μg/ml inositol. Control cultures received an equal volume of phosphate buffered saline (PBS). Following culture, embryos were scored for: (i) posterior neuropore length (the distance from the rostral end of the posterior neuropore to the tip of the tail bud), (ii) crown-rump length and (iii) somite number.

[4] = tested on: curly tail fetuses (spina bifida and tail flexion defects); assay type: in vivo, mouse; conditions: for Likelihood of fetuses being normal vs PBS (ordinal multilevel regression): subcutaneous; for Decrease in spina bifida frequency relative to PBS controls: subcutaneous 72 and 144 μg/g body weight/day
Procedure: as §2
In utero inositol treatment (subcutaneous administration)—For sub-cutaneous administration, osmotic mini-pumps (capacity 100 μl, delivery rate 1 μl/hour; Model 1003D, Alzet) were filled with solutions of 30, 75 or 150 mg/ml inositol (delivering 29, 72 and 144 μg inositol/g body weight/day respectively for a 25 g mouse), or PBS as a control. Mini-pumps were incubated in sterile PBS at 37° C. for 4 hours and then implanted subcutaneously on the back of pregnant mice at E8.5. General anesthesia was induced by an intra-peritoneal injection of 0.01 ml/g body weight of a solution comprising 10% Hypnovel® (midazolam 5 mg/ml) and 25% Hypnorm® (fentanyl citrate 0.315 mg/ml, fluanisone 10 mg/ml) in sterile distilled water.
(§3) Pregnant females were killed at E18.5, and the total number of implantations, classified as viable fetuses or resorptions, was recorded. Fetuses were dissected from the uterus and inspected immediately for the presence of open lumbo-sacral spina bifida and tail flexion defects: the primary manifestations of the curly tail genetic defect.

[5] = tested on: curly tail fetuses (spina bifida and tail flexion defects); test: In utero inositol treatment, oral dosing by gavage, fetuses inspected at E18.5; assay type: in vivo, mouse; conditions: for Curly tail, % of total for treatment group / Curly tail, number of fetuses / No. uterine resorptions / No. viable fetuses / Normal, % of total for treatment group / Normal, number of fetuses / Resorptions as % of total number of implantations / Spina bifida ± curly tail, % of total for treatment group / Spina bifida ± curly tail, number of fetuses / Mean litter size ± SEM: oral 800 μg inositol/g body weight/day; for Mean litter size ± SEM: viable fetuses per litter; for Reduction in the frequency of spina bifida / Effect on frequency of spina bifida among offspring: oral 800 μg/g body weight/day; for Effect on frequency of spina bifida among offspring: E8.5 to E10.5; for Likelihood of fetuses being normal vs PBS (ordinal multilevel regression): oral dosing study
Procedure: as §2
In utero inositol treatment (oral dosing)—For oral administration, pregnant mice were gavaged with 0.5 ml inositol solution in PBS at 12 hourly intervals from E8.5 to E10.5 (six doses in total; 800 μg/g body weight/day).
as §3

[6] = tested on: rat fibroblasts expressing the human insulin receptor; conditions: cited from earlier work
[7] = tested on: rats rendered diabetic by streptozotocin; conditions: cited from earlier work
[8] = tested on: patients with polycystic ovary syndrome; conditions: cited from earlier work
NTDs = conditions: folic acid supplementation in early pregnancy; cited from earlier work
[9] = tested on: curly tail mice (spinal NTDs); conditions: cultured embryos and offspring of curly tail mice treated during pregnancy; cited from earlier work
[10] = subcutaneous 29 μg inositol/g body weight/day
[11] = subcutaneous 72 μg inositol/g body weight/day
[12] = subcutaneous 144 μg inositol/g body weight/day

OC1C(O)C(O)C(O)C(O)C1O [D-chiro-inositol]
Mean posterior neuropore length (curly-tail mouse embryos; 20 μg/ml, 24 hours): 0.095±0.055
Mean posterior neuropore to crown-rump length ratio (curly-tail mouse embryos; 20 μg/ml, 24 hours): .029±.018
Fold decrease in mean posterior neuropore to crown-rump length ratio (curly-tail mouse embryos; 20 μg/ml, 24 hours, compared to control or myo-inositol treated): 5.6 fold
Fold decrease in mean posterior neuropore length (curly-tail mouse embryos): 6 fold
Fold decrease in number of fetuses with spina bifida compared to control [1]: 9 fold
Fold decrease in number of fetuses with spina bifida compared to myo-inositol [1]: 4 fold
Number of fetuses showing NTDs characterized by spina bifida [1]: 1
Percent of treated fetuses showing spina bifida [1]: 1.7%
Number of fetuses showing NTDs characterized by spina bifida [2]: 1
Percent of treated fetuses showing spina bifida [2]: 2.3%
Fold decrease in number of fetuses with spina bifida compared to control ([2]; oral): 8 fold
Fold decrease in number of fetuses with spina bifida compared to myo-inositol ([2]; oral): 3 fold
Crown-rump length compared with PBS-treated controls [3]: no significant difference
Effect on posterior neuropore length ([3]; 20 μg/ml): reduced neuropore length
Effect on posterior neuropore length ([3]; 50 μg/ml): reduced neuropore length
Effect on posterior neuropore length ([3]; 5-10 μg/ml): not different from PBS-treated controls
Likelihood of fetuses being normal vs PBS (ordinal multilevel regression) [4]: significantly more likely to be normal
Curly tail, % of total for treatment group [4, 10]: 65.4%
Curly tail, number of fetuses [4, 10]: 17
Normal, % of total for treatment group [4, 10]: 23.1%
Normal, number of fetuses [4, 10]: 6
Spina bifida ± curly tail, % of total for treatment group [4, 10]: 11.5%
Spina bifida ± curly tail, number of fetuses [4, 10]: 3
Curly tail, % of total for treatment group [4, 11]: 45.4%
Curly tail, number of fetuses [4, 11]: 39
Normal, % of total for treatment group [4, 11]: 52.3%
Normal, number of fetuses [4, 11]: 45
Spina bifida ± curly tail, % of total for treatment group [4, 11]: 2.3%
Spina bifida ± curly tail, number of fetuses [4, 11]: 2
Curly tail, % of total for treatment group [4, 12]: 46.5%
Curly tail, number of fetuses [4, 12]: 46
Normal, % of total for treatment group [4, 12]: 48.5%
Normal, number of fetuses [4, 12]: 48
Spina bifida ± curly tail, % of total for treatment group [4, 12]: 5.0%
Spina bifida ± curly tail, number of fetuses [4, 12]: 5
Decrease in spina bifida frequency relative to PBS controls [4]: 73-83%
Curly tail, % of total for treatment group [5]: 30.8%
Curly tail, number of fetuses [5]: 12
No. uterine resorptions [5]: 3
No. viable fetuses [5]: 39
Normal, % of total for treatment group [5]: 66.7%
Normal, number of fetuses [5]: 26
Resorptions as % of total number of implantations [5]: 7.1%
Spina bifida ± curly tail, % of total for treatment group [5]: 2.6%
Spina bifida ± curly tail, number of fetuses [5]: 1
Mean litter size ± SEM [5]: 6.50 ± 1.09
Reduction in the frequency of spina bifida [5]: 86%
Effect on frequency of spina bifida among offspring [5]: marked reduction in the frequency of spina bifida
Likelihood of fetuses being normal vs PBS (ordinal multilevel regression) [5]: more likely to be normal
Effect of insulin stimulation on incorporation into phospholipids [6]: significant increase
Reduction in plasma glucose level compared with exogenous myo-inositol [7]: much larger reduction in plasma glucose level
Effect on the action of insulin [8]: increase the action of insulin

Nc1nc2ncc(CNc3ccc(C(=O)N[C@@H](CCC(=O)O)C(=O)O)cc3)nc2c(=O)[nH]1 [folic acid]
NTDs that can be prevented (NTDs): Up to 70%

O[C@H]1[C@H](O)[C@@H](O)[C@H](O)[C@@H](O)[C@H]1O [myo-inositol, reference compound]
Mean posterior neuropore length (curly-tail mouse embryos; 20 μg/ml, 24 hours): 0.601±0.090
Mean posterior neuropore to crown-rump length ratio (curly-tail mouse embryos; 20 μg/ml, 24 hours): 0.172 ±0.026
Fold decrease in mean posterior neuropore length (curly-tail mouse embryos): 6 fold
Number of fetuses showing NTDs characterized by spina bifida [1]: 4
Percent of treated fetuses showing spina bifida [1]: 6.3%
Number of fetuses showing NTDs characterized by spina bifida [2]: 3
Percent of treated fetuses showing spina bifida [2]: 8.6%
Crown-rump length compared with PBS-treated controls [3]: no significant difference
Effect on posterior neuropore length ([3]; 20 μg/ml): not different from PBS-treated controls
Effect on posterior neuropore length ([3]; 50 μg/ml): comparable effect
Likelihood of fetuses being normal vs PBS (ordinal multilevel regression) [4]: reached statistical significance
Curly tail, % of total for treatment group [4, 10]: 41.4%
Curly tail, number of fetuses [4, 10]: 12
Normal, % of total for treatment group [4, 10]: 37.9%
Normal, number of fetuses [4, 10]: 11
Spina bifida ± curly tail, % of total for treatment group [4, 10]: 20.7%
Spina bifida ± curly tail, number of fetuses [4, 10]: 6
Curly tail, % of total for treatment group [4, 11]: 55.2%
Curly tail, number of fetuses [4, 11]: 37
Normal, % of total for treatment group [4, 11]: 38.8%
Normal, number of fetuses [4, 11]: 26
Spina bifida ± curly tail, % of total for treatment group [4, 11]: 6.0%
Spina bifida ± curly tail, number of fetuses [4, 11]: 4
Curly tail, % of total for treatment group [4, 12]: 55.3%
Curly tail, number of fetuses [4, 12]: 52
Normal, % of total for treatment group [4, 12]: 36.2%
Normal, number of fetuses [4, 12]: 34
Spina bifida ± curly tail, % of total for treatment group [4, 12]: 8.5%
Spina bifida ± curly tail, number of fetuses [4, 12]: 8
Decrease in spina bifida frequency relative to PBS controls [4]: 54-56%
Curly tail, % of total for treatment group [5]: 42.9%
Curly tail, number of fetuses [5]: 15
No. uterine resorptions [5]: 3
No. viable fetuses [5]: 35
Normal, % of total for treatment group [5]: 48.6%
Normal, number of fetuses [5]: 17
Resorptions as % of total number of implantations [5]: 7.9%
Spina bifida ± curly tail, % of total for treatment group [5]: 8.6%
Spina bifida ± curly tail, number of fetuses [5]: 3
Mean litter size ± SEM [5]: 5.83 ± 0.48
Reduction in the frequency of spina bifida [5]: 53%
Effect on frequency of spina bifida among offspring [5]: marked reduction in the frequency of spina bifida
Likelihood of fetuses being normal vs PBS (ordinal multilevel regression) [5]: did not differ significantly
Effect on incidence of spinal NTDs [9]: significantly reducing the incidence of spinal NTDs
Effect of insulin stimulation on incorporation into phospholipids [6]: only marginal
